The test system of series [1] is Rattus norvegicus. In words: Antihypertensive activity in spontaneous hypertensive rat assessed as change in systolic blood pressure at 100 mg/kg, po dosed at 0 hrs on day 1, 2 and 3 measured on day 3 by indirect tail-cuff method. The class given is functional.
The subject of series [2] is Rattus norvegicus. In words: Antihypertensive activity in spontaneous hypertensive rat assessed as change in systolic blood pressure at 100 mg/kg, po dosed at 0 hrs on day 1, 2 and 3 measured on day 1 by indirect tail-cuff method. The class given is functional.
In series [3] the test system is Rattus norvegicus. Briefly: Toxicity in spontaneous hypertensive rat model at 100 mg/kg, po dosed at 0 hrs on day 1, 2 and 3 measured on day 3. The class given is organism-based. Details: dose 100 mg/kg, route oral. The note with it: in vivo.
For series [4], the system named is Rattus norvegicus. In words: Antihypertensive activity in spontaneous hypertensive rat assessed as change in systolic blood pressure at 50 mg/kg, po dosed at 0 hrs on day 1, 2 and 3 measured on day 3 by indirect tail-cuff method. In kind it is functional, Artery.

Each structure is given as a SMILES string. Active and inactive are the calls of the source. No cut-off for these calls is given here.

28 compounds from ChEMBL document CHEMBL3244144, “Piperidylalkylindoles. 1. Hypotensive activity of 3-[2-(phenoxypiperidyl)ethyl]indoles” (J Med Chem, 1978) can be followed below.

Regarding `O=C(C(=O)N1CCC(Oc2ccccc2)CC1)c1c[nH]c2ccccc12`, the result with Rattus norvegicus [1] (Artery) and in the series on Rattus norvegicus [2] (Artery) was inactive.
For the compound `O=C(C(=O)N1CCC(Oc2ccc(F)cc2)CC1)c1c[nH]c2ccc(OCc3ccccc3)cc12`, the outcome with Rattus norvegicus [1] (Artery) and in the series on Rattus norvegicus [2] (Artery) was inactive.
Consider `O=C(C(=O)N1CCC(Oc2ccc(C(F)(F)F)cc2)CC1)c1c[nH]c2ccccc12`, for which the outcome with Rattus norvegicus [1] (Artery) and in the series on Rattus norvegicus [2] (Artery) was inactive.
Consider `O=C(C(=O)N1CCC(Oc2ccc(F)cc2)CC1)c1c[nH]c2ccccc12`, for which the result with Rattus norvegicus [1] (Artery) and in the series on Rattus norvegicus [2] (Artery) was inactive.
Consider `Clc1cccc(OC2CCN(CCc3c[nH]c4ccccc34)CC2)c1`, for which the figures for the Activity with Rattus norvegicus [1] and in the series with Rattus norvegicus [2] were -8 mmHg and -11.2 mmHg, respectively.
As to `Cc1[nH]c2ccccc2c1CCN1CCC(Oc2ccc(F)cc2)CC1`, the Activity is listed as -18 mmHg in the series with Rattus norvegicus [2] and “Toxic” in the series with Rattus norvegicus [3].
As to `O=C(C(=O)N1CCC(Oc2cccc(Cl)c2)CC1)c1c[nH]c2ccccc12`, the outcome with Rattus norvegicus [1] (Artery) and in the series with Rattus norvegicus [2] (Artery) was inactive.
Consider `Cl.O=C(NC1CCN(CCc2c[nH]c3ccccc23)CC1)c1ccccc1` [INDORAMIN HYDROCHLORIDE], for which, in the series with Rattus norvegicus [4], the Activity is -79 mmHg.
On to `Cc1cccc(OC2CCN(C(=O)C(=O)c3c[nH]c4ccccc34)CC2)c1`, for which the result in the series with Rattus norvegicus [1] (Artery) and in the series on Rattus norvegicus [2] (Artery) was inactive.
Regarding `Fc1ccc(OC2CCN(CCc3c[nH]c4ccc(OCc5ccccc5)cc34)CC2)cc1`, the Activity was -16 mmHg in the series on Rattus norvegicus [1] and -2 mmHg in the series on Rattus norvegicus [2].
Turning to `Cc1ccc(OC2CCN(C(=O)C(=O)c3c[nH]c4ccccc34)CC2)cc1`, the outcome with Rattus norvegicus [1] (Artery) and with Rattus norvegicus [2] (Artery) was inactive.
As for `c1ccc(OC2CCN(CCc3c[nH]c4ccccc34)CC2)cc1`, the Activity in the series on Rattus norvegicus [1] is on record as -31 mmHg; with Rattus norvegicus [2], -10 mmHg.
As to `Fc1ccc(OC2CCN(CCc3c[nH]c4ccccc34)CC2)cc1`, the Activity with Rattus norvegicus [1] was -55 mmHg; in the series with Rattus norvegicus [2], -56 mmHg.
Regarding `Cc1ccccc1OC1CCN(C(=O)C(=O)c2c[nH]c3ccccc23)CC1`, the result in the series on Rattus norvegicus [1] (Artery) and in the series with Rattus norvegicus [2] (Artery) was inactive.
As for `COc1cc2[nH]c(C)c(CCN3CCC(Oc4ccc(C(F)(F)F)cc4)CC3)c2cc1OC`, the Activity in the series on Rattus norvegicus [1] is -58 mmHg; in the series on Rattus norvegicus [2], -24 mmHg.
Consider `Cc1cccc(OC2CCN(CCc3c[nH]c4ccccc34)CC2)c1`, for which the Activity in the series with Rattus norvegicus [1] is listed as -14 mmHg; in the series on Rattus norvegicus [2] it was -3 mmHg.
For the compound `Cc1[nH]c2ccccc2c1C(=O)C(=O)N1CCC(Oc2ccc(F)cc2)CC1`, the result with Rattus norvegicus [1] (Artery) and with Rattus norvegicus [2] (Artery) was inactive.
In the case of `FC(F)(F)c1ccc(OC2CCN(CCc3c[nH]c4ccccc34)CC2)cc1`, the Activity in the series on Rattus norvegicus [2] is recorded as -24 mmHg; in the series with Rattus norvegicus [3], “Toxic”.
As for `COc1cc2[nH]c(C)c(C(=O)C(=O)N3CCC(Oc4ccc(C(F)(F)F)cc4)CC3)c2cc1OC`, the outcome with Rattus norvegicus [1] (Artery) and in the series with Rattus norvegicus [2] (Artery) was inactive.
In the case of `Cc1ccc(OC2CCCN(CCc3c[nH]c4ccccc34)C2)cc1` (stereo not given), the Activity with Rattus norvegicus [1] is given as -12 mmHg; in the series on Rattus norvegicus [2] it was -63 mmHg.
`Clc1ccc(OC2CCN(CCc3c[nH]c4ccccc34)CC2)cc1`: the Activity was -54 mmHg with Rattus norvegicus [1] and -47 mmHg in the series on Rattus norvegicus [2].
On to `O=C(C(=O)N1CCC(Oc2ccc(Cl)cc2)CC1)c1c[nH]c2ccccc12`, for which the outcome in the series with Rattus norvegicus [1] (Artery) and in the series with Rattus norvegicus [2] (Artery) was inactive.
With `COc1ccc2[nH]cc(C(=O)C(=O)N3CCC(Oc4ccc(F)cc4)CC3)c2c1`, the result in the series with Rattus norvegicus [1] (Artery) and with Rattus norvegicus [2] (Artery) was inactive.
As to `Cc1ccc(OC2CCCN(C(=O)C(=O)c3c[nH]c4ccccc34)C2)cc1` (stereo not given), the result with Rattus norvegicus [1] (Artery) and in the series with Rattus norvegicus [2] (Artery) was inactive.
For `Cc1ccc(OC2CCN(CCc3c[nH]c4ccccc34)CC2)cc1`, the Activity with Rattus norvegicus [1] is given as -57 mmHg; in the series with Rattus norvegicus [2] it was -48 mmHg.
In the same order, the values of `Cc1ccccc1OC1CCN(CCc2c[nH]c3ccccc23)CC1` are -8 mmHg and -7 mmHg.
In the same order, the values of `Brc1ccc(OC2CCN(CCc3c[nH]c4ccccc34)CC2)cc1` are -59 mmHg and -49 mmHg.
`COc1ccc2[nH]cc(CCN3CCC(Oc4ccc(F)cc4)CC3)c2c1`: the Activity with Rattus norvegicus [1] is -6 mmHg; with Rattus norvegicus [2], -2 mmHg.
